Measurements from publication PMC12298876, “Angiotensin-Converting Enzyme Inhibitory Activity of Selected Phenolic Acids, Flavonoids, Their O-Glucosides, and Low-Molecular-Weight Phenolic Metabolites in Relation to Their Oxidation Potentials” (Metabolites, 2025).
“And” between values parts separate entries of the source, which are not always exact repeats. Identical values can stand only once. Like-named read-outs stand apart in the source and are kept apart here. Marks after values point to notes of the source that are not given here.

Tests used:
[1] = system: ACE; conditions: cited from earlier work
[2] = molecular target: T1, Angiotensin-converting enzymes (ACE) from porcine kidneys (EC 3.4.15.1) (Sus scrofa, UniProt F1RRW5); test: biochemical; conditions: for ACE inhibitory activity lower than that of reduced glutathione (GSH): ratio to the IC50 of GSH; for higher value of IC50 as compared to the IC50 of the respective aglycon: glucoside vs aglycon; for lower IC50 in relation to the respective aglycone: glycoside vs aglycon
T1 construct: Angiotensin-converting enzymes (ACE) from porcine kidneys (EC 3.4.15.1) were purchased from Sigma-Aldrich; purchased Sigma-Aldrich (St. Louis, MO, USA); host or cells: porcine kidneys (tissue-derived enzyme)
T1 sequence (F1RRW5 34-1309): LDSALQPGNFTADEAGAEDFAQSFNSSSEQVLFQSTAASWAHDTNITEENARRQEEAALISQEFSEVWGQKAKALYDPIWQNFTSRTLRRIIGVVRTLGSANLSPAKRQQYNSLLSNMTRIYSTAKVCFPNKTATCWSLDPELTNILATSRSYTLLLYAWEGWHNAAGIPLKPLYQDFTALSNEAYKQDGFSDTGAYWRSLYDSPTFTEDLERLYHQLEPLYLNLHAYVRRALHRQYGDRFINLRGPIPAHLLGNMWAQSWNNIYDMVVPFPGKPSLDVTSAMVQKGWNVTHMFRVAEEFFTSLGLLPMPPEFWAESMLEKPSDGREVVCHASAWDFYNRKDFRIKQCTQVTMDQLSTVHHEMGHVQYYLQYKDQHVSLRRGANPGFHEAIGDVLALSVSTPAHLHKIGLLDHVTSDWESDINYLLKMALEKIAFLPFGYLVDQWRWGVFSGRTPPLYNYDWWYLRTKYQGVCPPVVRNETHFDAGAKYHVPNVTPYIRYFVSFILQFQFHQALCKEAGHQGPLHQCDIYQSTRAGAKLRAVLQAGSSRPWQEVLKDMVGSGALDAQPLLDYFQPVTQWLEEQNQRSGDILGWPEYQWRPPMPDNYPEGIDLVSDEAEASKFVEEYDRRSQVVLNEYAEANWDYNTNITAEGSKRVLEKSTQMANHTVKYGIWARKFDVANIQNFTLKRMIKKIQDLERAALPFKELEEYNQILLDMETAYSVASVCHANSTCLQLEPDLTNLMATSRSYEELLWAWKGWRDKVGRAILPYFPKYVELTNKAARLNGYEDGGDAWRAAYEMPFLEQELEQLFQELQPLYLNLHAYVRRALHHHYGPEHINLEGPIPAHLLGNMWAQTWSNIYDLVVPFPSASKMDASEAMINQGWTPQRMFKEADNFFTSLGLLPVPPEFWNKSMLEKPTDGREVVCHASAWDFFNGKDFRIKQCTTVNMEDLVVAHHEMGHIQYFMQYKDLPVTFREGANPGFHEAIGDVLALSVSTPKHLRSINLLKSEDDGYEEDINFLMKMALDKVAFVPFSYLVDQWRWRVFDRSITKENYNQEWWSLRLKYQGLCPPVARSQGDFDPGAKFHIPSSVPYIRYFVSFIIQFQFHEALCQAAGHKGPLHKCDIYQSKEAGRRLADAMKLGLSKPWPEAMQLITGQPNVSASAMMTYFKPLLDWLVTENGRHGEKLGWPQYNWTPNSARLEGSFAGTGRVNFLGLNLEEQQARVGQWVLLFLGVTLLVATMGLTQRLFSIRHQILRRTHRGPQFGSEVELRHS
Method: Angiotensin-converting enzymes (ACE) from porcine kidneys (EC 3.4.15.1) were purchased from Sigma-Aldrich (St. Louis, MO, USA). A three-tris-base buffer was as follows: buffer A: 300 mM Tris-base buffer (pH 8.3) with 2 mM ZnCl2; buffer B: 150 mM Tris-base buffer (pH 8,3); and buffer C: 150 mM Tris-base buffer (pH 8.3) with […] NaCl. The substrate o-aminobenzoylglycyl-p-nitorphenylalanylproline (Abz-Gly-Phe(NO2)-Pro) was obtained from BACHEM (Bubendorf, Switzerland). Standards of phenolic acids, flavonoids, glucosides, and low-molecular-weight phenolic metabolites were obtained from Sigma-Aldrich (St. Louis, MO, USA) and Extrasynthese (Genay, France). Water was purified using the Mili-Q system (Milipore, Bedford, MA, USA).
Stock solutions at 1 mM of selected phenolic acids, flavonoids, their O-glucosides, and low-molecular-weight phenolic metabolites were prepared in 80% methanol. The concentration was confirmed by a UV measurement according to Franke et al.. A wide range of concentrations of each compound was prepared by serial dilutions in deionized water to determine the IC50 value. […] The ACE inhibitory activity was obtained from three repetitions (n = 3) for each concentration.
Angiotensin-converting enzyme (ACE) activity inhibitory assay was performed according to the method of Sentandreu and Toldra. The procedure was based on the hydrolysis of the internally quenched substrate o-aminobenzoylglycyl-p-nitorphenylalanylproline (Abz-Gly-Phe(NO2)-Pro) by the reaction of ACE. The fluorescence generated by the liberation of the product (the o-aminobenzoylglycine group) was read in a microplate multiscan fluorometer. The production of fluorescence was inhibited by the presence of functional compounds with an ACE inhibitory effect. The fluorescence was measured immediately after mixing (0 min) and then after 30 min of reaction at an excitation of 365 nm and an emission of 405 nm. To calculate the % of inhibition of ACE, the following equation was used:Relative ACE activity% = 100 − (ΔRFUsample × 100/ΔRFUnegative control), where ΔRFU = RFU at time 30 – RFU at time 0.

[3] = First anodic oxidation potential by differential pulse voltammetry (DPV); format: physicochemical; conditions: for Anodic Peak Potential Epa: DPV, first anodic peak, 0.25 mM standard in 0.1 M Britton-Robinson buffer pH 6.0 in 80% methanol, glassy carbon vs Ag/AgCl, 100 mV/s; for antioxidant power class based on the first oxidation potential: low-molecular-weight phenolic metabolites, classes according to Blasco et al. [47]
Method: A potentiostat/galvanostat G 750 (Gamry Instruments, Warminster, USA) was used for voltametric experiments. A conventional three-electrode system: a 3 mm diameter glassy carbon working electrode (BAS MF-2012), an Ag/AgCl electrode as a reference electrode, and a platinum as counter electrode, was used in the study. Differential pulse voltametric experiments were performed with phenolic acids and flavonoids prepared in a 1:1 (v/v) mixture of 500 µM standard solution and […] Britton-Robinson (B-R) buffer (pH 6.0 in 80% methanol), which also served as a supporting electrolyte. The voltametric experiments were performed at room temperature using an electrochemical cell (volume 200 µL), to which the analyzed standard solution, mixed previously with the buffer solution, was introduced. The differential pulse voltammograms were acquired in the range of −100 to 1300 mV at a scanning rate of 100 mV/s. Before use, the surface of the glassy carbon electrode was carefully polished with 0.05 µm alumina paste, ultrasonically rinsed in deionized water, and then washed with methanol. This procedure was repeated after each cycle. For test purposes, the first anodic oxidation potential was recorded (mV).

[4] = system: ACE; set-up: method as in PMID 23185345; conditions: same fluorometric method as this study; read-out: IC50 (ACE inhibition); cited from earlier work
[5] = IC50 Value (ACE inhibitory activity), porcine kidney ACE, substrate Abz-Gly-Phe(NO2)-Pro, fluorescence after 30 min, mean ± SD
[6] = porcine kidney ACE, substrate Abz-Gly-Phe(NO2)-Pro, fluorescence after 30 min, mean ± SD, read-out: IC50 Value (ACE inhibitory activity)

| Compound | IC50 [2, 5] | Anodic Peak Potential Epa [3] | IC50 [2, 6] | further results |
| --- | --- | --- | --- | --- |
| O=C(CCc1ccc(O)cc1)c1c(O)cc(O)cc1O [phloretin] | – | – | – | IC50 higher than the IC50 of phloretin 2′-O-glucose [1]: 25%; IC50 ([1]; read-out: IC50 (ACE inhibitory activity)): 286.8 ± 2.54 µM |
| O=C(O)c1cc(O)ccc1O [Gentisic acid] | 0.834 ± 0.00926 mM | 622 ± 8 ^c mV | – | IC50 ([2]; IC50 (ACE inhibition), values of this study restated in mM in the discussion): 0.834 mM |
| O=C(O)CCc1ccc(O)cc1 [4-HPPA, 3-(4-hydroxyphenyl)propionic acid] | – | 664 ± 8 ^e mV | 0.49 mM and 0.491 mM | ACE inhibitory activity lower than that of reduced glutathione (GSH) [2]: ~12 fold; antioxidant power class based on the first oxidation potential [3]: moderate antioxidant power (moderate antioxidant power (0.3 V < Epa < 0.8 V)) |
| O=c1c(OC2OC(CO)C(O)C(O)C2O)c(-c2ccc(O)c(O)c2)oc2cc(O)cc(O)c12 [Hyperoside, quercetin-3-O-D-galactoside] | 0.1572 ± 0.00145 mM | 307 ± 3 ^h mV | – | higher value of IC50 as compared to the IC50 of the respective aglycon ([2]; ACE inhibition): 30% |
| COc1cc(CC(=O)O)ccc1O [HVA, 2-(3-methoxy-4-hydroxyphenyl)acetic acid] | 1.46 mM | 643 ± 5 ^e mV | – | ACE inhibitory activity lower than that of reduced glutathione (GSH) [2]: about 35 fold; antioxidant power class based on the first oxidation potential [3]: moderate antioxidant power (moderate antioxidant power (0.3 V < Epa < 0.8 V)) |
| C[C@@H]1O[C@@H](O[C@H]2[C@H](Oc3cc(O)c4c(=O)cc(-c5ccc(O)cc5)oc4c3)O[C@H](CO)[C@@H](O)[C@@H]2O)[C@H](O)[C@H](O)[C@H]1O [rhoifolin, reference compound] | – | – | – | IC50 [4]: 183 µM |
| O=C(O)c1ccc(O)cc1 [4-HBA, 4-hydroxybenzoic acid] | – | 961 ± 11 ^a mV | 0.788 ± 0.0111 mM | – |
| O=c1cc(-c2ccc(O)c(O)c2)oc2cc(OC3OC(CO)C(O)C(O)C3O)cc(O)c12 (stereo not drawn) [Luteolin-7-O-glucoside] | 0.0615 ± 0.00162 mM | 445 ± 3 ^e mV | – | lower IC50 in relation to the respective aglycone ([2]; ACE inhibition): 20% |
| O=c1c(O)c(-c2ccc(O)cc2)oc2cc(O)cc(O)c12 [Kaempferol] | – | 394 ± 4 ^g mV | 0.132 ± 0.00247 mM | IC50 [4]: 178 µM |
| O=C(O)CCc1ccc(O)c(O)c1 [3,4-DHPPA, 3-(3,4-dihydroxyphenyl)propionic acid] | – | 218 ± 3 ^h mV | 0.612 ± 0.00651 mM | – |
| O=c1cc(-c2ccc(O)cc2)oc2cc(O)cc(O)c12 [Apigenin] | 0.337 ± 0.00372 mM | 810 ± 6 ^c mV | – | IC50 [4]: 196 µM |
| COc1cc(/C=C/C(=O)O)cc(OC)c1O [Sinapic acid] | 0.493 ± 0.00614 mM | 618 ± 7 ^c mV | – | – |
| O=c1c(O)c(-c2ccc(O)cc2)oc2cc(OC3OC(CO)C(O)C(O)C3O)cc(O)c12 (stereo not drawn) [Kaempferol-7-O-glucoside] | – | 419 ± 6 ^f mV | 0.0977 ± 0.00208 mM | lower IC50 in relation to the respective aglycone ([2]; ACE inhibition): 26% |
| C[C@@H]1O[C@@H](OC[C@H]2O[C@@H](Oc3c(-c4ccc(O)c(O)c4)oc4cc(O)cc(O)c4c3=O)[C@H](O)[C@@H](O)[C@@H]2O)[C@H](O)[C@H](O)[C@H]1O [Rutin, quercetin-O-3-rutinoside] | 0.0593 mM | 389 ± 4 ^g mV | – | IC50 [4]: 64 µM; lower IC50 in relation to the respective aglycone ([2]; ACE inhibition): 50% |
| OCC1OC(Oc2cc3c(O)cc(O)cc3[o+]c2-c2cc(O)c(O)c(O)c2)C(O)C(O)C1O (stereo not drawn) [Delphinidin-3-O-glucoside] | – | 453 ± 4 ^e mV | 0.2088 ± 0.00133 mM | lower IC50 in relation to the respective aglycone ([2]; ACE inhibition): 16% |
| OCC1OC(Oc2cc3c(O)cc(O)cc3[o+]c2-c2ccc(O)c(O)c2)C(O)C(O)C1O (stereo not drawn) [Cyanidin-3-O-glucoside] | – | 373 ± 4 ^g mV | 0.185 ± 0.00258 mM | higher value of IC50 as compared to the IC50 of the respective aglycon ([2]; ACE inhibition): 5% |
| OCC1OC(Oc2cc3c(O)cc(O)cc3[o+]c2-c2ccc(O)cc2)C(O)C(O)C1O (stereo not drawn) [Pelargonidin-3-O-glucoside] | – | 473 ± 5 ^d mV | 0.3769 ± 0.00261 mM | higher value of IC50 as compared to the IC50 of the respective aglycon ([2]; ACE inhibition): 29% |
| O=c1c(O)c(-c2ccc(O)c(O)c2)oc2cc(O)cc(O)c12 [Quercetin] | – | 330 ± 4 ^g mV | 0.121 ± 0.00156 mM | – |
| O=c1cc(-c2ccc(O)c(O)c2)oc2cc(O)cc(O)c12 [Luteolin] | – | 407 ± 5 ^f mV | 0.0771 ± 0.00255 mM | IC50 [4]: 23 µM; IC50 lower than the value for naringenin ([2]; ACE inhibition): fivefold |
